Laboratory results: patent publication US8614208B2, “Fused heterocyclic ring derivative and use thereof” (Takeda Pharmaceutical Company Limited, priority 2009, dated 2013)

Target: T1, Smo (Mus musculus, UniProt P56726)
T1 construct: endogenous in cells; host or cells: NIH-3T3 cells stably carrying the Gli reporter plasmid
Experiment: Gli reporter luciferase assay in NIH-3T3/Gli reporter cells stimulated with mouse Shh-N end fragment
Type: cell-based
Conditions: NIH3T3; 1 μM compound; NIH-3T3/Gli reporter cells with mouse Shh-N culture supernatant, 48 hr; luciferase activity, control without compound as 100; read-out: inhibitory rate (%) at 1 μM
Procedure: Gli reporter plasmid was constructed by inserting 8×Gli-binding site and chicken δ-crystalline promoter into the upstream of luc+ of pGL3 (Promega).
prepared in reference to the base sequence described in GenBank accession No.; X02187, and chicken genome DNA (Clontech) as a template. PCR reaction was performed using Pfu Turbo (Stratagene) and following the attached protocol. The obtained 108 bp fragment was digested with restriction enzymes BglII and HindIII, and inserted into BglII-HindIII site of pGL3 to give plasmid pGL3/δ-cry promoter.
As 8×Gli-binding site, a sequence containing eight 9-bp Gli bound consensus sequences (GACCACCCA) described in Yoon et al., J. Biol. Chem., vol. 273, pages 3496-3501 (1998) was prepared from synthetic DNA. That is, two synthetic DNAs,
were heat treated at 95° C. for 2 minutes, and incubated at 37° C. for 1 hr for annealing to give a double stranded DNA of the above-mentioned two synthetic DNAs. The obtained double stranded DNA was digested with restriction enzymes BglII and KpnI, and the obtained DNA fragment was inserted into BglII-KpnI site of pGL3/δ-cry promoter to construct plasmid pGL3/δ-cry promoter, 8×Gli binding site, i.e., Gli reporter plasmid.
HEK293 cells were grown in D-MEM medium (Invitrogen) containing 10% fetal bovine serum in a 10 cm dish and pcDNA3.1/mShh-N was introduced into the cells using FuGENE6 (Roche Applied Science). Thereafter, the HEK293 cells were cultured in a carbon dioxide gas incubator at 37° C. for 24 hours, and the medium was exchanged with D-MEM medium (Invitrogen) containing 2% fetal bovine serum. After culturing for 48 hr, a culture supernatant containing recombinant type mouse Shh-N end fragment was obtained by filtration using a filter ([…]).
Using D-MEM (Invitrogen) containing 10% fetal bovine serum, expression plasmid pcDNA3.1 and Gli reporter plasmid (pGL3/δ-cry promoter, 8×Gli binding site) produced by the method of Experimental Example 1 were introduced into NIH-3T3 cells grown in a 10 cm dish by the use of FuGENE6 (Roche Applied Science).
After culture for 24 hr, the cells were recovered, suspended in D-MEM medium containing 10% fetal bovine serum and supplemented with Geneticin (Life Technologies Oriental, Inc.) to a final concentration of 500 μg/ml, diluted to 10^4 cells/ml, plated on a 96 well plate, and cultured in a carbon dioxide gas incubator at 37° C. to give Geneticin resistant transformed cell line.
The obtained transformed cell line was cultured in a 96 well plate, mouse Shh-N end fragment obtained in Experimental Example 3 was added, and NIH-3T3/Gli reporter cell, which is a cell line capable of induction of luciferase expression, was selected.
NIH-3T3/Gli reporter cells cultured in D-MEM (Invitrogen) containing 10% fetal bovine serum were plated in a 96 well white plate at 1×10^4 cells/well, and cultured overnight in a carbon dioxide gas incubator at 37° C. The medium was removed, a compound (50 μl) and culture supernatant of mouse Shh-N end fragment-expressing HEK293 (D-MEM medium containing 2% fetal bovine serum, 50 μl) were added, and the cells were cultured for 48 hr in a carbon dioxide gas incubator at 37° C. Bright-Glo (Promega, 50 μl) was added, and the mixture was stirred, after which luciferase activity was measured by EnVision (PerkinElmer). The inhibition rate was calculated based on the luciferase activity of the control without addition of the compound as 100.

T1 sequence (P56726 33-793): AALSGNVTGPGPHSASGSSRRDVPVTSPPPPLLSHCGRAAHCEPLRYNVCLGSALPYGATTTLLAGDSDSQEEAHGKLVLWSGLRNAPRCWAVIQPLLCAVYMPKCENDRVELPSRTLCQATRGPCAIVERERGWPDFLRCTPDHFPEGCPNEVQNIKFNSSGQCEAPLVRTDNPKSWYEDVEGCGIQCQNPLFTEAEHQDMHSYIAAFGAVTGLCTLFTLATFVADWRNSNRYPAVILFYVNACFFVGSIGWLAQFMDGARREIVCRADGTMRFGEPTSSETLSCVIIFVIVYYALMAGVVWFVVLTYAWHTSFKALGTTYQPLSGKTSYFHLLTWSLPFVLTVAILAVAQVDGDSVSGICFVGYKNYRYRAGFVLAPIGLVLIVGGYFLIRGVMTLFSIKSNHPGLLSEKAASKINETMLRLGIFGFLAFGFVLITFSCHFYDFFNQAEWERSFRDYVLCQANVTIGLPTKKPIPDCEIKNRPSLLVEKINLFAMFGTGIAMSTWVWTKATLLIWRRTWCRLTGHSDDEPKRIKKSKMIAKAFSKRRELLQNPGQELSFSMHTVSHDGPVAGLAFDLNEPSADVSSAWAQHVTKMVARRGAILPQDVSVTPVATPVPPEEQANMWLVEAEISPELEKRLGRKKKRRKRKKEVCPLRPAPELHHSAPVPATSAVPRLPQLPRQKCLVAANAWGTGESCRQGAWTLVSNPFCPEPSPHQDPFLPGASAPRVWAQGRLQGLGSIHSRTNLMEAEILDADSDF

SMILES | inhibition at 1 µM [%]
Cc1nc2c(c(OCC(F)(F)F)c(C(=O)NC3CCN(C(=O)CO)CC3)n2C)c(=O)n1CC(=O)c1ccccc1 [Example 1, N-[1-(hydroxyacetyl)piperidin-4-yl]-2,7-dimethyl-4-oxo-3-(2-oxo-2-phenylethyl)-5-(2,2,2-trifluoroethoxy)-4,7-dihydro-3H-pyrrolo[2,3-d]pyrimidine-6-carboxamide] | 98
Cc1nc2c(c(OC(C)C)c(C(=O)NC3CCN(C(=O)CO)CC3)n2C)c(=O)n1CC(=O)c1ccccc1 [Example 3, N-[1-(hydroxyacetyl)piperidin-4-yl]-2,7-dimethyl-5-(1-methylethoxy)-4-oxo-3-(2-oxo-2-phenylethyl)-4,7-dihydro-3H-pyrrolo[2,3-d]pyrimidine-6-carboxamide] | 93
Cc1nc2c(c(OCC(F)(F)F)c(C(=O)NC3CCN(C(=O)CO)CC3)n2C)c(=O)n1Cc1ccccc1 [Example 4, 3-benzyl-N-[1-(hydroxyacetyl)piperidin-4-yl]-2,7-dimethyl-4-oxo-5-(2,2,2-trifluoroethoxy)-4,7-dihydro-3H-pyrrolo[2,3-d]pyrimidine-6-carboxamide] | 98
Cc1nc2c(c(OCC(F)(F)F)c(C(=O)NC3CCN(C(=O)CO)CC3)n2C)c(=O)n1Cc1ccc(F)cc1 [Example 5, 3-(4-fluorobenzyl)-N-[1-(hydroxyacetyl)piperidin-4-yl]-2,7-dimethyl-4-oxo-5-(2,2,2-trifluoroethoxy)-4,7-dihydro-3H-pyrrolo[2,3-d]pyrimidine-6-carboxamide] | 100
COc1cccc(Cn2c(C)nc3c(c(OCC(F)(F)F)c(C(=O)NC4CCN(C(=O)CO)CC4)n3C)c2=O)c1 [Example 6, N-[1-(hydroxyacetyl)piperidin-4-yl]-3-(3-methoxybenzyl)-2,7-dimethyl-4-oxo-5-(2,2,2-trifluoroethoxy)-4,7-dihydro-3H-pyrrolo[2,3-d]pyrimidine-6-carboxamide] | 97
Cc1nc2c(c(OCC(F)(F)F)c(C(=O)NC3CCN(C(=O)CO)CC3)n2C)c(=O)n1Cc1ccc(Cl)cc1 [Example 9, 3-(4-chlorobenzyl)-N-[1-(hydroxyacetyl)piperidin-4-yl]-2,7-dimethyl-4-oxo-5-(2,2,2-trifluoroethoxy)-4,7-dihydro-3H-pyrrolo[2,3-d]pyrimidine-6-carboxamide] | 95
Cc1nc2c(c(OCC(F)(F)F)c(C(=O)NC3CCN(C(=O)CO)CC3)n2C)c(=O)n1CCc1ccccc1 [Example 12, N-[1-(hydroxyacetyl)piperidin-4-yl]-2,7-dimethyl-4-oxo-3-(2-phenylethyl)-5-(2,2,2-trifluoroethoxy)-4,7-dihydro-3H-pyrrolo[2,3-d]pyrimidine-6-carboxamide] | 98
Cc1nc2c(c(OCC(F)(F)F)c(C(=O)NC3CCN(C(=O)CO)CC3)n2C)c(=O)n1Cc1ccccc1Cl [Example 14, 3-(2-chlorobenzyl)-N-[1-(hydroxyacetyl)piperidin-4-yl]-2,7-dimethyl-4-oxo-5-(2,2,2-trifluoroethoxy)-4,7-dihydro-3H-pyrrolo[2,3-d]pyrimidine-6-carboxamide] | 95
Cc1nc2c(c(OCC(F)(F)F)c(C(=O)NC3CCN(C(=O)CO)CC3)n2C)c(=O)n1CCc1ccc(F)cc1 [Example 15, 3-[2-(4-fluorophenyl)ethyl]-N-[1-(hydroxyacetyl)piperidin-4-yl]-2,7-dimethyl-4-oxo-5-(2,2,2-trifluoroethoxy)-4,7-dihydro-3H-pyrrolo[2,3-d]pyrimidine-6-carboxamide] | 97
CCc1nc2c(c(OCC(F)(F)F)c(C(=O)NC3CC[S+]([O-])CC3)n2C)c(=O)n1CC(=O)c1ccccc1 (centres unmarked) [Example 21, 2-ethyl-7-methyl-N-(1-oxidetetrahydro-2H-thiopyran-4-yl)-4-oxo-3-(2-oxo-2-phenylethyl)-5-(2,2,2-trifluoroethoxy)-4,7-dihydro-3H-pyrrolo[2,3-d]pyrimidine-6-carboxamide] | 97
CCc1nc2c(c(OC(C)C)c(C(=O)NC3CCN(C(=O)CO)CC3)n2C)c(=O)n1CC(=O)c1ccccc1 [Example 22, 2-ethyl-N-[1-(hydroxyacetyl)piperidin-4-yl]-7-methyl-5-(1-methylethoxy)-4-oxo-3-(2-oxo-2-phenylethyl)-4,7-dihydro-3H-pyrrolo[2,3-d]pyrimidine-6-carboxamide] | 98
Cc1nc2c(c(OC(C)C)c(C(=O)NC3CCN(C(=O)CO)CC3)n2C)c(=O)n1-c1ccccc1 [Example 29, N-[1-(hydroxyacetyl)piperidin-4-yl]-2,7-dimethyl-5-(1-methylethoxy)-4-oxo-3-phenyl-4,7-dihydro-3H-pyrrolo[2,3-d]pyrimidine-6-carboxamide] | 99

Further lines, results first:

inhibition at 1 µM [%] | SMILES
95 | CCOc1c(C(=O)NC2CCN(C(=O)CO)CC2)n(C)c2nc(C)n(CC(=O)c3ccccc3)c(=O)c12 [Example 2, 5-ethoxy-N-[1-(hydroxyacetyl)piperidin-4-yl]-2,7-dimethyl-4-oxo-3-(2-oxo-2-phenylethyl)-4,7-dihydro-3H-pyrrolo[2,3-d]pyrimidine-6-carboxamide]
96 | COc1ccccc1Cn1c(C)nc2c(c(OCC(F)(F)F)c(C(=O)NC3CCN(C(=O)CO)CC3)n2C)c1=O [Example 8, N-[1-(hydroxyacetyl)piperidin-4-yl]-3-(2-methoxybenzyl)-2,7-dimethyl-4-oxo-5-(2,2,2-trifluoroethoxy)-4,7-dihydro-3H-pyrrolo[2,3-d]pyrimidine-6-carboxamide]
98 | Cc1nc2c(c(OCC(F)(F)F)c(C(=O)NC3CCN(C(=O)CO)CC3)n2C)c(=O)n1Cc1cccc(Cl)c1 [Example 10, 3-(3-chlorobenzyl)-N-[1-(hydroxyacetyl)piperidin-4-yl]-2,7-dimethyl-4-oxo-5-(2,2,2-trifluoroethoxy)-4,7-dihydro-3H-pyrrolo[2,3-d]pyrimidine-6-carboxamide]
96 | CCCCCn1c(C)nc2c(c(OCC(F)(F)F)c(C(=O)NC3CCN(C(=O)CO)CC3)n2C)c1=O [Example 11, N-[1-(hydroxyacetyl)piperidin-4-yl]-2,7-dimethyl-4-oxo-3-pentyl-5-(2,2,2-trifluoroethoxy)-4,7-dihydro-3H-pyrrolo[2,3-d]pyrimidine-6-carboxamide]
97 | CCc1nc2c(c(OCC(F)(F)F)c(C(=O)NC3CCN(C(=O)CO)CC3)n2C)c(=O)n1CC(=O)c1ccccc1 [Example 13, 2-ethyl-N-[1-(hydroxyacetyl)piperidin-4-yl]-7-methyl-4-oxo-3-(2-oxo-2-phenylethyl)-5-(2,2,2-trifluoroethoxy)-4,7-dihydro-3H-pyrrolo[2,3-d]pyrimidine-6-carboxamide]
97 | CCc1nc2c(c(OCC(F)(F)F)c(C(=O)NC3CCOCC3)n2C)c(=O)n1CC(=O)c1ccccc1 [Example 16, 2-ethyl-7-methyl-4-oxo-3-(2-oxo-2-phenylethyl)-N-(tetrahydro-2H-pyran-4-yl)-5-(2,2,2-trifluoroethoxy)-4,7-dihydro-3H-pyrrolo[2,3-d]pyrimidine-6-carboxamide]
98 | CCc1nc2c(c(OCC(F)(F)F)c(C(=O)NC3CCN(C(=O)CO)CC3)n2C)c(=O)n1Cc1cccc(Cl)c1 [Example 17, 3-(3-chlorobenzyl)-2-ethyl-N-[1-(hydroxyacetyl)piperidin-4-yl]-7-methyl-4-oxo-5-(2,2,2-trifluoroethoxy)-4,7-dihydro-3H-pyrrolo[2,3-d]pyrimidine-6-carboxamide]
97 | CCOc1c(C(=O)NC2CCN(C(=O)CO)CC2)sc2nc(C)n(CC(=O)c3ccccc3)c(=O)c12 [Example 18, 5-ethoxy-N-[1-(hydroxyacetyl)piperidin-4-yl]-2-methyl-4-oxo-3-(2-oxo-2-phenylethyl)-3,4-dihydrothieno[2,3-d]pyrimidine-6-carboxamide]
